Results reported in publication PMC4793304 (Bioscience Reports, 2016).
Read-outs that look alike come from different tables or passages of the source.

Tests used:
mouse Pgp transporter [1] = biological target: T1, mouse Pgp transporter (Mus musculus, UniProt P21447); test: biochemical
From the text: (§1) Drug-induced quenching of protein fluorescence with Pgp reconstituted in liposomes was investigated on an Olis DM 45 spectrofluorimeter (Olis Corp). […] Drug-induced fluorescence quenching was corrected (Fcorrected) for background fluorescence, dilution and inner filter effects with eqn (3) [57]:
3 Fcorrected=F−B10^ɛexbex+ɛembemQ/2
(§2) where F is the measured protein fluorescence, B is the background and [Q] is the quenching ligand concentration. The molar absorption coefficients (ε) for excitation and emission are εex and εem respectively. […] The pathlength (b) along the excitation and emission axes are bex and bem respectively. Drug-induced quenching of protein fluorescence from complexation of the ligand to the protein is known as static quenching, and can be used to estimate the drug's affinity. Drug-induced fluorescence quenching from random collisions with the protein is known as dynamic quenching [57]. Regardless of the nature of the quenching, the fluorescence quenching curves were fit to eqn (4) [57]:
4 Fcorrected=Fcorrected,0/1+KQ
(§3) where Fcorrected,0 is the protein fluorescence in the absence of a quenching ligand and K is the association constant (KA) or the Stern–Volmer quenching constant (KSV) in the case of a static and dynamic quenching processes respectively.

mouse Pgp transporter [2] = biological target: T1, mouse Pgp transporter; settings: proton near the 1,4 β-linkage; 250 μM digoxin, 1 μM Pgp
Method: The STDD NMR procedure for membrane proteins was performed as described in [68]. […] The STDD NMR experiments were performed with a double pulsed field gradient spin echo pulse sequence to suppress background water, a 2s train of 50 ms shaped saturation pulses to selectively excite the protein and a total relaxation delay of 5 s [63]. […] Control experiments were performed under identical conditions with liposomes and the drugs. To produce the STDD NMR spectrum, ^1H STD NMR spectrum of liposomes with drugs was subtracted from the ^1H STD NMR spectrum of Pgp reconstituted in liposomes with drugs (ΔI). […] The STDD amplification factor was calculated using the following equation based on the STD amplification factor (eqn 5) [63]:
5 STDDamplificationfactor=L/PΔI/I0
where [P] is the protein concentration and I0 is the amplitude of the ^1H NMR peaks in the absence of saturating pulses.

mouse Pgp transporter [3] = biological target: T1, mouse Pgp transporter
From the text: (§4) Because of the complexity of the model shown in Figure 6A, the kinetics curves in Figures 6B and 6C were fit using the COPASI software package.

[4] = system: human Pgp from Caco-2 cells; settings: read-out: Km for digoxin transport; cited from earlier work
mouse Pgp transporter [5] = biological target: T1, mouse Pgp transporter; settings: 250 μM digoxin
Method: Control acrylamide titrations were performed in the presence of N-acetyl-L-tryptophanamide (NATA) to estimate the degree of non-specific quenching [55]. Fluorescence intensities were corrected for with eqn (3) [57]. To produce the Stern–Volmer plots, the Fcorrected,0/Fcorrected was plotted as a function of the acrylamide concentration. The degree of dynamic tryptophan quenching was estimated from the slopes of the Stern–Volmer curves, which is related to KSV by Fcorrected,0/Fcorrected = 1 + KSV[Q]

Pgp = settings: read-out: Km for ATPase activation (implied); CR1R12 cells; maximal activation not reached at 1000 μM digoxin; cited from earlier work
mouse Pgp transporter [6] = biological target: T1, mouse Pgp transporter; remark: listed apart in the source
human Pgp [7] = settings: read-out: Km for ATPase activation; human Pgp-enriched insect cell membranes; cited from earlier work
mouse Pgp transporter [8] = biological target: T1, mouse Pgp transporter; test: biochemical; remark: listed apart in the source
From the text: as §4

mouse Pgp transporter [9] = biological target: T1, mouse Pgp transporter; remark: listed apart in the source
From the text: as §1
3 Fcorrected=F−B10^ɛexbex+ɛembemQ/2
as §2
4 Fcorrected=Fcorrected,0/1+KQ
as §3

human Pgp [10] = settings: read-out: Km for ATPase activation; Caco-2 membrane vesicles containing human Pgp; cited from earlier work

T1 sequence (P21447 whole entry): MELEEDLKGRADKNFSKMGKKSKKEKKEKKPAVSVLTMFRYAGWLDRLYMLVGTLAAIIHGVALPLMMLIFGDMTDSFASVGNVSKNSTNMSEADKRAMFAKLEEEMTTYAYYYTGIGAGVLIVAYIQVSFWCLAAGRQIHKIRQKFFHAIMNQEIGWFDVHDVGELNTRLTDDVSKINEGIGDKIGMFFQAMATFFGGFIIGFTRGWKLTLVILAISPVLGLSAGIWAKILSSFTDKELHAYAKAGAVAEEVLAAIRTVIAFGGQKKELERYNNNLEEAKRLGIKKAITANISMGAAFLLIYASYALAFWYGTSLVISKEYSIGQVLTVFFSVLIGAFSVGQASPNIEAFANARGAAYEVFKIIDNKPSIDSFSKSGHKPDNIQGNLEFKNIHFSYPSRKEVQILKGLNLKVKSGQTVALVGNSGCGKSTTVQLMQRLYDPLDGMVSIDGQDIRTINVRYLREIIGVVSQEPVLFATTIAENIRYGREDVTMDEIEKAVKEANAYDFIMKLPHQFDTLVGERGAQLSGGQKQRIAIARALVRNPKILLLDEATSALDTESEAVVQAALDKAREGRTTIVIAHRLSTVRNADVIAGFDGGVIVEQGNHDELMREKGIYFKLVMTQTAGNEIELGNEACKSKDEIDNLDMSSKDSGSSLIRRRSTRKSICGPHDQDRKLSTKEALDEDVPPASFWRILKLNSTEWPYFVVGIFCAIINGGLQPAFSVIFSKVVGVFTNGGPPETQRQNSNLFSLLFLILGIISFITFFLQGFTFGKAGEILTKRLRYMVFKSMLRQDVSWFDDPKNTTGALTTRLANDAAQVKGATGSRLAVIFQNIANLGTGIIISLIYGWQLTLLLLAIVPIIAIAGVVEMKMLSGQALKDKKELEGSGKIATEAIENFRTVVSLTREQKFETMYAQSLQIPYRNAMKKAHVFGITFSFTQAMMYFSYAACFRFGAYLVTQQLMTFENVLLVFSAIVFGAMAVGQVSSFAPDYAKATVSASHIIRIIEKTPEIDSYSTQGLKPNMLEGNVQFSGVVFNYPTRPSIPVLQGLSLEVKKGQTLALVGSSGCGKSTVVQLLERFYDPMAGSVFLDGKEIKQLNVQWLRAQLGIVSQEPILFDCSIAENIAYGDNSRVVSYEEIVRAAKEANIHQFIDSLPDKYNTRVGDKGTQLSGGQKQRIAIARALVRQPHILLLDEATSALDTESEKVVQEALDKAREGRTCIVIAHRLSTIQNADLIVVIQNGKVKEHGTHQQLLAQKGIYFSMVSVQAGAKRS

C[C@H]1O[C@@H](O[C@H]2[C@@H](O)C[C@H](O[C@H]3[C@@H](O)C[C@H](O[C@H]4CC[C@@]5(C)[C@H](CC[C@@H]6[C@@H]5C[C@@H](O)[C@]5(C)[C@@H](C7=CC(=O)OC7)CC[C@]65O)C4)O[C@@H]3C)O[C@@H]2C)C[C@H](O)[C@@H]1O [digoxin]
Kd (mouse Pgp transporter [1]): 100 ± 18 µM | highest STDD amplification factor (mouse Pgp transporter [2]): ~8 | average VMAX3 (mouse Pgp transporter [3]; average from fitting all curves): 1981 ± 207 nmol/min/mg | VMAX4,5, ATPase activation from simultaneous binding of digoxin and verapamil (mouse Pgp transporter [3]; both drugs bound, estimated by fitting with COPASI): 121 ± 139 nmol/min/mg | VMAX3 (digoxin, DDI model) (mouse Pgp transporter [3]; in the absence of verapamil): 1983 nmol/min/mg | Km [4]: 385 µM | KSV (acrylamide Stern-Volmer slope of Pgp) (mouse Pgp transporter [5]): 2.29 ± 0.12 M⁻¹ | Km (Pgp): > 500 µM | maximum Pgp-coupled ATPase activity reached (mouse Pgp transporter [6]; 50 nM Pgp in liposomes, verapamil maximum at 8 μM): ~1300 nmol/min/mg | fold activation of ATPase at maximum (mouse Pgp transporter [6]; relative to basal activity, verapamil at 8 μM): ~2 fold | VMAX of drug-induced ATP hydrolysis (mouse Pgp transporter [6]; verapamil fit to substrate inhibition eqn 2, digoxin fit to Michaelis-Menten eqn 1): 1344 ± 149.8 nmol/min/mg | Km (human Pgp [7]): 83.7 µM | Kd (mouse Pgp transporter [8]; KD3 (digoxin, DDI model), in the absence of verapamil): 239 µM | Kd (mouse Pgp transporter [8]; KD4, affinity of digoxin to Pgp in the presence of verapamil, estimated indirectly by fitting with COPASI): 292 ± 89 µM | Kd (mouse Pgp transporter [8]; average KD3, average from fitting all curves): 206 ± 53 µM | K from fluorescence quenching (mouse Pgp transporter [9]; 37°C, no verapamil): 0.0030 ± 0.0008 µM⁻¹ | quenching of Pgp fluorescence at saturating digoxin (mouse Pgp transporter [9]; excitation 280 nm, emission 333 nm, 25°C): ~10% | Km (human Pgp [10]): 1.2 µM
